Experimental data: the supplement of paper PMC11208160

assay: recombinant UMI read abundance after kanamycin selection (control-corrected) (log10(CPM+1)); higher = more efficient recombination; extreme values may be limits of the assay; sequences stand for … in AGTGCAGAGAAAATCGGCCAGTTTTCTCTGCCTGCAGTCCGCATGCCGTGGGACCCCTTGGGTTCTAACCTGTTGCCTAGATTTATGCAGCGGACTGCCTTTCTCCCAAAGTGATAAACCGG…AGGTTGGTTTCACT; site = the 11-nt donor
Procedure, shortened: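 Pooled Escherichia coli screen of donor and donor-binding-loop pairs for the IS621 bridge recombinase. Each pair sits with a 12-nt UMI on a plasmid carrying a promoterless kanamycin gene. The library was co-electroporated with a target plasmid encoding a fixed target and T7-inducible recombinase, then plated with IPTG (0.07 mM) plus kanamycin, or unselected, each in two replicates. Recombinant UMIs were PCR-amplified across the donor–target junction and sequenced. Counts became CPM, averaged over replicates, scaled by control-derived factors and reported as log10(CPM+1).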
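Note: IS621 bridge recombinase in Escherichia coli cells against a fixed T5 target plasmid.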

Sequence | recombinant UMI read abundance (log10)
AGGAAGACATGGACCGGTTTTCCCGGTAATCCGTATTTGCA (site AGGAGGACTTT) | 0.0142
AGGAAGACATGGACCGGTTTTCCCGGTAATCCGTATTTGCA (site AGGAGGCCTTG) | 0
AGGAAGACATGGACCGGTTTTCCCGGTAATCCGTATTTGCA (site AGGATAACTTG) | 0.855
AGGAAGACATGGACCGGTTTTCCCGGTAATCCGTATTTGCA (site AGGATGACTCG) | 0.0201
AGGAAGACATGGACCGGTTTTCCCGGTAATCCGTATTTGCA (site AGGATGACTTA) | 0.0119
AGGAAGACATGGACCGGTTTTCCCGGTAATCCGTATTTGCA (site AGGATGACTTG) | 0.688
AGGAAGACATGGACCGGTTTTCCCGGTAATCCGTATTTGCA (site AGGATGTCTTG) | 0
AGGAAGACATGGACCGGTTTTCCCGGTAATCCGTATTTGCA (site AGGCAGACTAG) | 0
AGGAAGACATGGACCGGTTTTCCCGGTAATCCGTATTTGCA (site AGGCAGACTTC) | 0.0244
AGGAAGACATGGACCGGTTTTCCCGGTAATCCGTATTTGCA (site AGGCAGACTTG) | 1.49
AGGAAGACATGGACCGGTTTTCCCGGTAATCCGTATTTGCA (site AGGCAGGCTTG) | 0.0104
AGGAAGACATGGACCGGTTTTCCCGGTAATCCGTATTTGCA (site AGGCATACTTG) | 0
AGGAAGACATGGACCGGTTTTCCCGGTAATCCGTATTTGCA (site AGGCCGACTTG) | 0.00452
AGGAAGACATGGACCGGTTTTCCCGGTAATCCGTATTTGCA (site AGGGAAACTTG) | 0
AGGAAGACATGGACCGGTTTTCCCGGTAATCCGTATTTGCA (site AGGGAGACTCG) | 0
AGGAAGACATGGACCGGTTTTCCCGGTAATCCGTATTTGCA (site AGGGAGACTTA) | 0.00967
AGGAAGACATGGACCGGTTTTCCCGGTAATCCGTATTTGCA (site AGGGAGACTTG) | 1.32
AGGAAGACATGGACCGGTTTTCCCGGTAATCCGTATTTGCA (site AGGGAGTCTTG) | 0
AGGAAGACATGGACCGGTTTTCCCGGTAATCCGTATTTGCA (site AGGGTGACTTG) | 0.161

Sequence | recombinant UMI read abundance (log10)
AGGAAGACATGGACCGGTTTTCCCGGTAATCCGTATTTGCA (site AGGTACACTTG) | 1.06
AGGAAGACATGGACCGGTTTTCCCGGTAATCCGTATTTGCA (site AGGTAGACTGG) | 0
AGGAAGACATGGACCGGTTTTCCCGGTAATCCGTATTTGCA (site AGGTAGACTTG) | 1.88
AGGAAGACATGGACCGGTTTTCCCGGTAATCCGTATTTGCA (site AGGTAGACTTT) | 0.0208
AGGAAGACATGGACCGGTTTTCCCGGTAATCCGTATTTGCA (site AGGTAGCCTTG) | 0
AGGAAGACATGGACCGGTTTTCCCGGTAATCCGTATTTGCA (site AGGTGGACTTG) | 0.577
AGGAAGACATGGACCGGTTTTCCCGGTAATCCGTATTTGCA (site AGTAACACTTG) | 0.00423
AGGAAGACATGGACCGGTTTTCCCGGTAATCCGTATTTGCA (site AGTAAGACTGG) | 0
AGGAAGACATGGACCGGTTTTCCCGGTAATCCGTATTTGCA (site AGTAAGACTTG) | 1.25
AGGAAGACATGGACCGGTTTTCCCGGTAATCCGTATTTGCA (site AGTAAGACTTT) | 0.006
AGGAAGACATGGACCGGTTTTCCCGGTAATCCGTATTTGCA (site AGTAAGCCTTG) | 0
AGGAAGACATGGACCGGTTTTCCCGGTAATCCGTATTTGCA (site AGTAGGACTTG) | 0.855
AGGAAGACATGGACCGGTTTTCCCGGTAATCCGTATTTGCA (site AGTTAGACTTG) | 1
AGGAAGACATGGACCGGTTTTCCCGGTAATCCGTATTTGCA (site ATCAAGACTTG) | 0.869
AGGAAGACATGGACCGGTTTTCCCGGTAATCCGTATTTGCA (site ATGAAGACTAG) | 0
AGGAAGACATGGACCGGTTTTCCCGGTAATCCGTATTTGCA (site ATGAAGACTTC) | 0.0122
AGGAAGACATGGACCGGTTTTCCCGGTAATCCGTATTTGCA (site ATGAAGACTTG) | 1.43
AGGAAGACATGGACCGGTTTTCCCGGTAATCCGTATTTGCA (site ATGAAGGCTTG) | 0
